These results are taken from patent US4213895A, “N-[N-[N-[ N-[N-(5-Oxo-L-prolyl)-L-histidyl]-L-tryptophyl]-L-seryl]-L-tyrosyl]glycin e azide, an intermediate of the releasing agent of luteinizing hormone (LW) and of follicle stimulating hormone (FSH)” (American Home Products Corporation, priority 1979, dated 1980).

Assay [1] concerns LH- and FSH-releasing. As to the kind of experiment: LH- and FSH-releasing activity, radioimmunoassay described by Niswender et al. To be noted: acid addition salt. The text has this: (§1) Exp. Biol. Med., 128, 807 (1968).
Assay [2] concerns induction of ovulation in the hamster. The assay is described as follows: Induction of ovulation in the hamster (Arimura et al., Science 174, 511). The format is in vivo. The conditions noted are these: acid addition salt.
Description: as §1

The test system of assay [3] is induction of ovulation in the rat. The assay is described as follows: Induction of ovulation in the rat, modification of the assay of Arimura et al., Endocrinology 80, 515. The format is in vivo. The conditions noted are these: acid addition salt.
Description: as §1

Assay [4] relates to LH- and FSH-releasing. The assay is described as follows: Bioassays, not specified, comparison with the natural hormone. The conditions noted are these: diacetate salt. The text has this: Said last-named compound (VI) is condensed by means of the azide method via the azide, N-[N-[N-[N-[N-(5-oxo-L-prolyl)-L-histidyl]-L-tryptophyl]-L-seryl]-L-tyrosyl]glycine azide, with N-[N-[N-(N-leucyl)-L-arginyl]-L-prolyl]glycinamide diacetate (V) to yield the desired decapeptide 5-oxo-L-prolyl-L-histidyl-L-tryptophyl-L-seryl-L-tyrosylglycyl-L-leucyl-L- arginyl-L-prolylglycinamide (I) which is isolated in the form of its diacetate salt. The latter salt may be converted, if desired, into a different acid addition salt, e.g. a salt with a pharmaceutically acceptable acid, by treatment with the appropriate ion exchange resin in the manner described by Boissonas et al., Helv. Chim. Acta 43, 1349 (1960). Suitable ion exchange resins are strongly basic anion exchange resins, for example those listed in Greenstein and Winitz "Chemistry of the Amino Acids", Hohn Wiley and Sons, Inc., New York and London 1961, Vol. 2, p. 1456. Basically substituted cross-linked polystyrene resins such as Amerlite IRA-400 or IRA-410 are preferred. The above diacetate may also be converted to a salt of low solubility in body fluids by treatment with a slightly water-soluble pharmaceutically acceptable acid. The acid addition salts of the LH- and FSH-releasing hormone produced by the process of this invention with pharmacologically acceptable acids are biologically fully equivalent to the natural hormone. […]

Molecules are shown by their SMILES.

As for `CC(C)C[C@H](NC(=O)CNC(=O)[C@H](Cc1ccc(O)cc1)NC(=O)[C@H](CO)NC(=O)[C@H](Cc1c[nH]c2ccccc12)NC(=O)[C@H](Cc1c[nH]cn1)NC(=O)[C@@H]1CCC(=O)N1)C(=O)N[C@@H](CCCNC(=N)N)C(=O)N1CCC[C@H]1C(=O)NCC(N)=O` [I, 5-oxo-L-prolyl-L-histidyl-L-tryptophyl-L-seryl-L-tyrosylglycyl-L-leucyl-L-arginyl-L-prolylglycinamide], in the assay on LH- and FSH-releasing [1], the “LH- and FSH-releasing activity relative to the natural hormone” value was “as active as the natural hormone”. The “activity in induction of ovulation relative to the natural hormone” value in assay [2] and in assay [3] was “equally active” in each case. Moreover, in the assay on LH- and FSH-releasing [4], the “potency in bioassays relative to the natural product” value is reported as “as potent as the latter”.
